# According to US20220409617A1, “Drug Formulations and Methods of Treatment for Metabolic Disorders” (The Regents of the University of California, priority 2019, published 2022):
# How the values were obtained:
# hepatic mitochondria = test: Hepatic mitochondrial morphology (NADH/NADPH autofluorescence) after acute treatment; format: in vivo, mouse
# Description: To determine whether sphingolipid-like compound 893 also protects from ceramide-induced mitochondrial fragmentation in vivo, a cohort of mice with diet-induced obesity was analyzed. Male, C57BL/6J mice were fed a 45% kcal from fat rodent diet (HFD) or a standard chow diet (10% kcal from fat) for 22-26 weeks. Mitochondrial morphology was compared in freshly resected livers from vehicle- or sphingolipid-like compound 893-treated mice using NADH/NADPH autofluorescence and confocal microscopy. When evaluating mitochondrial morphology, light microscopy has two, significant advantages over electron microscopy: 1) the 3D architecture of the mitochondrial network is readily apparent, and 2) quantitative measurements of mitochondrial shape can be made in a large number of cells in an automated and unbiased manner using image analysis software (FIG. 11). […]
# MEFs were washed twice with PBS and fixed with 4% paraformaldehyde for 10 min at RT. […] NADH/NADPH autofluorescence was detected with 740 nm excitation and 450±50 nm detectors using a Mai Tai two-photon laser. Fluorescence microscopy was performed on a Zeiss LSM 780 confocal using a 63× oil objective with a […] numerical aperture (NA) or using a Nikon TE2000-S inverted epifluorescence microscope with a 100× oil objective (1.3 NA) and a Photometrics CoolSNAP ES2 monochrome CCD camera. […]
# PIKfyve = PIKfyve (Homo sapiens, UniProt Q9Y2I7); conditions: cited from earlier work
# AKT = conditions: cited from earlier work
# GLUT1 = conditions: cited from earlier work
# Sequence of PIKfyve (Q9Y2I7 whole entry, species assumed): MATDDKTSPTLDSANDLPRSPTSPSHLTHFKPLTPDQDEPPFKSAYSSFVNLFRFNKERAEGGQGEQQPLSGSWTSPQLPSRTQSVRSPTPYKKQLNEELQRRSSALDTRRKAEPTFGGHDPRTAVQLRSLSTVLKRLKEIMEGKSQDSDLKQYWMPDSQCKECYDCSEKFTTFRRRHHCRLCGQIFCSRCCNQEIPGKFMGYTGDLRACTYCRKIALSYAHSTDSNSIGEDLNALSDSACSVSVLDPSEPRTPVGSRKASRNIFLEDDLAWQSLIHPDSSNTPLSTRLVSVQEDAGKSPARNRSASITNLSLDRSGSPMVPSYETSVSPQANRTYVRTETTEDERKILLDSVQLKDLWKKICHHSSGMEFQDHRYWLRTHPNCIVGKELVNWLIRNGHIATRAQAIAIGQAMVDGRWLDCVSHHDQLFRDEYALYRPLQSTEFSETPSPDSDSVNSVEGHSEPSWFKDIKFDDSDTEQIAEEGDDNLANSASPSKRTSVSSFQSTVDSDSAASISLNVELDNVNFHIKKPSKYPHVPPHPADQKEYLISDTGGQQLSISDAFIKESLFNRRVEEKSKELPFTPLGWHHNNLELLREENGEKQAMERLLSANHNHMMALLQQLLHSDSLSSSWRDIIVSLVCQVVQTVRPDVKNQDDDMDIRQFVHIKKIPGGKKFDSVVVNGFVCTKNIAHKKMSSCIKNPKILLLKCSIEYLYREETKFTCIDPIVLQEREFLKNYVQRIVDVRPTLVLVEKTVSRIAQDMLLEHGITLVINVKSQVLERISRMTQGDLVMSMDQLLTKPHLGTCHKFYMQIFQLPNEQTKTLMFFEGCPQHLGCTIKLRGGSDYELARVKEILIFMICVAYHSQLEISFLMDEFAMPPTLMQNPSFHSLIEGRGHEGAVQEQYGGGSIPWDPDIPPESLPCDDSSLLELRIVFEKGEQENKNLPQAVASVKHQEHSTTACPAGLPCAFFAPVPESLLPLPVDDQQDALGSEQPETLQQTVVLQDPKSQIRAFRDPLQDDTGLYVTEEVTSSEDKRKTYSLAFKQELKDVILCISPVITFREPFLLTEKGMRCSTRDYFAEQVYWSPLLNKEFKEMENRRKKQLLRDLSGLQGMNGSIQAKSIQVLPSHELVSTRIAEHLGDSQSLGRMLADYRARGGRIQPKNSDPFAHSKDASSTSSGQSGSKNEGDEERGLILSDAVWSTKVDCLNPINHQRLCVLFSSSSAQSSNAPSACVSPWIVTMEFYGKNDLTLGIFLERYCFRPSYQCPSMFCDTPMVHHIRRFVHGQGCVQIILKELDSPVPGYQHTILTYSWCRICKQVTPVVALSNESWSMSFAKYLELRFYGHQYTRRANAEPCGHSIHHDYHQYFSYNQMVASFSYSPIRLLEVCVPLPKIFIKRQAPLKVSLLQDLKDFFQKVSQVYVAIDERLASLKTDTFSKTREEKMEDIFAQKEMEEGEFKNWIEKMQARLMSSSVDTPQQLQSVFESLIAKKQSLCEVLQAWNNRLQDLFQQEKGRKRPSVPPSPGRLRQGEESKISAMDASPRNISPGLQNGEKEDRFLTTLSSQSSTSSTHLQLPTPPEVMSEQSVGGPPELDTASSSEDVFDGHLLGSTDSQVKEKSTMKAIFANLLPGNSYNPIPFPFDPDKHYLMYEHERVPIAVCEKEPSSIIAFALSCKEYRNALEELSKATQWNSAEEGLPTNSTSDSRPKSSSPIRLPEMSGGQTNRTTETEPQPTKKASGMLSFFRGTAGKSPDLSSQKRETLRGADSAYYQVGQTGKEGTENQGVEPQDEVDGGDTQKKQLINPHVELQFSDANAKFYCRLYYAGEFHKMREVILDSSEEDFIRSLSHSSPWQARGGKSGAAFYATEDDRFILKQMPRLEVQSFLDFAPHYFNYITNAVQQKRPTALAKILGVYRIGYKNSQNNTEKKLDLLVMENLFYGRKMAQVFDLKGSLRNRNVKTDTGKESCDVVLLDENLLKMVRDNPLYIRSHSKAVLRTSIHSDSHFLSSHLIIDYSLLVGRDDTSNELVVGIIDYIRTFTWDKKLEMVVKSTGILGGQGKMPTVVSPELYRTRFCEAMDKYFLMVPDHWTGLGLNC
structure (smiles),measurement,setting,value
CCCCCCCCc1ccc([C@H]2CCN[C@@H]2CO)cc1.Cl [compound 893],"Hepatic mitochondrial morphology (aspect ratio, roundness), HFD-fed mice","hepatic mitochondria; single oral dose 120 mg/kg at ZT8.5, HFD-fed, treatment-naive mice",increasing their tubularity (increased aspect ratio) and reducing their roundness to match controls fed standard chow
same,"Hepatic mitochondrial morphology, lean SD-fed mice","hepatic mitochondria; single oral dose 120 mg/kg, mice consuming the SD",did not significantly alter hepatic mitochondrial morphology
same,Effect on PIKfyve,PIKfyve,inactivates
same,Effect on AKT activity,AKT,does not reduce AKT activity
same,Effect on GLUT1,GLUT1,down-regulate GLUT1
